ChEMBL document CHEMBL4325862, “Identification of novel quinazoline derivatives as potent antiplasmodial agents” (Eur J Med Chem, 2019)

What was measured:
[1] = target: T1, DNA (cytosine-5)-methyltransferase 3A (Homo sapiens, UniProt Q9Y6K1); assay: Inhibition of recombinant human DNMT3a C-terminal catalytic domain (623 to 908 residues) at 10 uM using 5'-biotinylated/3'-FAM-oligonucleotide as substrate measured after 1 hr in presence of Adomet by fluorescence assay relative to control
[2] = system: Plasmodium falciparum; assay: Antiplasmodial activity against asynchronous form of Plasmodium falciparum 3D7 infected in human erythrocytes assessed as parasite growth inhibition at 10 uM after 48 hrs by SYBR green1 staining based flow cytometry relative to control; type: functional; settings: 3D7, 48 h
[3] = system: Plasmodium falciparum; assay: Antiplasmodial activity against asynchronous form of Plasmodium falciparum 3D7 infected in human erythrocytes assessed as parasite growth inhibition after 48 hrs by SYBR green1 staining based flow cytometry; type: functional, organism-based; settings: 3D7, 48 h
[4] = target: DNA (cytosine-5)-methyltransferase 1 (Homo sapiens, UniProt P26358); assay: Inhibition of recombinant human DNMT1 using biotinylated DNA duplex as substrate measured after 2 hrs in presence of Adomet/[methyl-3H]Adomet by topcount method
[5] = Selectivity index, ratio of IC50 for mouse spleen cells to IC50 for asynchronous form of Plasmodium falciparum 3D7 infected in human erythrocytes; type: toxicity, cell-based; settings: read-out: Ratio IC50
[6] = Cytotoxicity against mouse spleen cells; type: cell-based
[7] = target: T1, DNA (cytosine-5)-methyltransferase 3A; assay: Inhibition of recombinant human DNMT3a C-terminal catalytic domain (623 to 908 residues) using 5'-biotinylated/3'-FAM-oligonucleotide as substrate measured after 1 hr in presence of Adomet by fluorescence assay
[8] = target: T2, Histone-lysine N-methyltransferase EHMT2 (Homo sapiens, UniProt Q96KQ7); assay: Inhibition of recombinant human N-terminal GST-fused G9a (786 to 1210 residues) expressed in Escherichia coli using biotinylated H3 (1 to 21 residues) as substrate measured after 1 hr in presence of 3H-Adomet by filter binding assay
T2 sequence (Q96KQ7 whole entry): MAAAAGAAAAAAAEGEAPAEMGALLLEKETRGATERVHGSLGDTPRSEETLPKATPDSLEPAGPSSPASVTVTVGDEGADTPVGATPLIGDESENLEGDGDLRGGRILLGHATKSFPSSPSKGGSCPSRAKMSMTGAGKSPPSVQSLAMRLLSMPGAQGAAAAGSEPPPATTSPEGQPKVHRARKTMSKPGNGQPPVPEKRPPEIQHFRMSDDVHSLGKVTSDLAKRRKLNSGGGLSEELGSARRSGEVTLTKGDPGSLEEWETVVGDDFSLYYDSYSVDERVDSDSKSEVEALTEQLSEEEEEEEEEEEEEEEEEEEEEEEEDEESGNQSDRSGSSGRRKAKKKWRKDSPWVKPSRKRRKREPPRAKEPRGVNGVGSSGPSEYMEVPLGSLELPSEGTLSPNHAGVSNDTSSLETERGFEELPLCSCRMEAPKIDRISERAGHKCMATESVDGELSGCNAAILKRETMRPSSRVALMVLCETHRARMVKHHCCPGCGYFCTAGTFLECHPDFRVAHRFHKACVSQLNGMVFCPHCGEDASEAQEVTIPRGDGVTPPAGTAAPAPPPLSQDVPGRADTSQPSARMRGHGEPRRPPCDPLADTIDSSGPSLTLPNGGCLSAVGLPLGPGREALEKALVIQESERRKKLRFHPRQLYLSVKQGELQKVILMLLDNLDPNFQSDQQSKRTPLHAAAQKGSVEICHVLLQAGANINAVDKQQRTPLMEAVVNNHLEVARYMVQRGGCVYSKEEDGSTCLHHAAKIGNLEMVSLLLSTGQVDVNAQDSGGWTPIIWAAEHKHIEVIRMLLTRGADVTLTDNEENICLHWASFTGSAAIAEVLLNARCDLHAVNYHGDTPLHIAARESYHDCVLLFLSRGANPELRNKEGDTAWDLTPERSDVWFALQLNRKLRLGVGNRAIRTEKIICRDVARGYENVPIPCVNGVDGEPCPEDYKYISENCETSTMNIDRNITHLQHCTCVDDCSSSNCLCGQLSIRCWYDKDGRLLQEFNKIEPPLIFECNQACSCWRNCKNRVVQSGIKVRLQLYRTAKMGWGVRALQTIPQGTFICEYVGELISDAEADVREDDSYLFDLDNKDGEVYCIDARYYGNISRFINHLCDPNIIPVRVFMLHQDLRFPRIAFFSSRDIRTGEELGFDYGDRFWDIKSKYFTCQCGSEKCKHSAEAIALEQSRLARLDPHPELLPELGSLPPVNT

[9] = system: Plasmodium falciparum; assay: Antiplasmodial activity against asynchronous form of Plasmodium falciparum W2 infected in human erythrocytes assessed as parasite growth inhibition after 48 hrs by SYBR green1 staining based flow cytometry; type: functional, organism-based; settings: W2, 48 h
[10] = system: Plasmodium falciparum; assay: Antiplasmodial activity against Plasmodium falciparum Dd2 infected in human erythrocytes assessed as reduction in [3H]-hypoxanthine incorporation measured after 48 hrs by microbeta liquid scintillation counting method; type: functional, organism-based
[11] = system: HFF; assay: Cytotoxicity against HFF; type: cell-based; settings: Homo sapiens

T1 sequence (Q9Y6K1 whole entry, looked up, the tested form may be a part): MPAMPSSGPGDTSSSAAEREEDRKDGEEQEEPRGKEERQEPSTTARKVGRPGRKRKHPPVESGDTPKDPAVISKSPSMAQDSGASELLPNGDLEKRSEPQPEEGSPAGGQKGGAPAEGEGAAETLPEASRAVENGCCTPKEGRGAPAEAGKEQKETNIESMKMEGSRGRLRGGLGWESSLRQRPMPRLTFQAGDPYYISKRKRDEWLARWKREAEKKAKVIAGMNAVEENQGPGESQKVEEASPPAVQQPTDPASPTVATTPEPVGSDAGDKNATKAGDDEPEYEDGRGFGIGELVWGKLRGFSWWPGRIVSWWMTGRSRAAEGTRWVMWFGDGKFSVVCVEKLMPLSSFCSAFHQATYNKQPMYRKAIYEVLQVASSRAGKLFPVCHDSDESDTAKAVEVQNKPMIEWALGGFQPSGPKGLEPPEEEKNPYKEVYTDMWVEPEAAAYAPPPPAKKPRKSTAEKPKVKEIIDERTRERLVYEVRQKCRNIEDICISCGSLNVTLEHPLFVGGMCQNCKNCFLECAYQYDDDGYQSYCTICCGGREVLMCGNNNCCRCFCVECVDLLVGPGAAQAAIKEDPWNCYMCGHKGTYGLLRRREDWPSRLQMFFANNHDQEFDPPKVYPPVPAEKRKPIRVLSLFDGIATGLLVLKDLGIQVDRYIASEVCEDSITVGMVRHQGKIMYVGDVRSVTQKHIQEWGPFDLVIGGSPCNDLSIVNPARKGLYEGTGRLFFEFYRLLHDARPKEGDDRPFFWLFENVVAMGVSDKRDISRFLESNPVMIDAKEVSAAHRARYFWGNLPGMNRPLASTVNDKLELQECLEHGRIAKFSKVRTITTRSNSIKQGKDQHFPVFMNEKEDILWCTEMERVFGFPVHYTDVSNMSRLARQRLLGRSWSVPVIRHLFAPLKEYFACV
Sequence of DNA (cytosine-5)-methyltransferase 1 (P26358 whole entry): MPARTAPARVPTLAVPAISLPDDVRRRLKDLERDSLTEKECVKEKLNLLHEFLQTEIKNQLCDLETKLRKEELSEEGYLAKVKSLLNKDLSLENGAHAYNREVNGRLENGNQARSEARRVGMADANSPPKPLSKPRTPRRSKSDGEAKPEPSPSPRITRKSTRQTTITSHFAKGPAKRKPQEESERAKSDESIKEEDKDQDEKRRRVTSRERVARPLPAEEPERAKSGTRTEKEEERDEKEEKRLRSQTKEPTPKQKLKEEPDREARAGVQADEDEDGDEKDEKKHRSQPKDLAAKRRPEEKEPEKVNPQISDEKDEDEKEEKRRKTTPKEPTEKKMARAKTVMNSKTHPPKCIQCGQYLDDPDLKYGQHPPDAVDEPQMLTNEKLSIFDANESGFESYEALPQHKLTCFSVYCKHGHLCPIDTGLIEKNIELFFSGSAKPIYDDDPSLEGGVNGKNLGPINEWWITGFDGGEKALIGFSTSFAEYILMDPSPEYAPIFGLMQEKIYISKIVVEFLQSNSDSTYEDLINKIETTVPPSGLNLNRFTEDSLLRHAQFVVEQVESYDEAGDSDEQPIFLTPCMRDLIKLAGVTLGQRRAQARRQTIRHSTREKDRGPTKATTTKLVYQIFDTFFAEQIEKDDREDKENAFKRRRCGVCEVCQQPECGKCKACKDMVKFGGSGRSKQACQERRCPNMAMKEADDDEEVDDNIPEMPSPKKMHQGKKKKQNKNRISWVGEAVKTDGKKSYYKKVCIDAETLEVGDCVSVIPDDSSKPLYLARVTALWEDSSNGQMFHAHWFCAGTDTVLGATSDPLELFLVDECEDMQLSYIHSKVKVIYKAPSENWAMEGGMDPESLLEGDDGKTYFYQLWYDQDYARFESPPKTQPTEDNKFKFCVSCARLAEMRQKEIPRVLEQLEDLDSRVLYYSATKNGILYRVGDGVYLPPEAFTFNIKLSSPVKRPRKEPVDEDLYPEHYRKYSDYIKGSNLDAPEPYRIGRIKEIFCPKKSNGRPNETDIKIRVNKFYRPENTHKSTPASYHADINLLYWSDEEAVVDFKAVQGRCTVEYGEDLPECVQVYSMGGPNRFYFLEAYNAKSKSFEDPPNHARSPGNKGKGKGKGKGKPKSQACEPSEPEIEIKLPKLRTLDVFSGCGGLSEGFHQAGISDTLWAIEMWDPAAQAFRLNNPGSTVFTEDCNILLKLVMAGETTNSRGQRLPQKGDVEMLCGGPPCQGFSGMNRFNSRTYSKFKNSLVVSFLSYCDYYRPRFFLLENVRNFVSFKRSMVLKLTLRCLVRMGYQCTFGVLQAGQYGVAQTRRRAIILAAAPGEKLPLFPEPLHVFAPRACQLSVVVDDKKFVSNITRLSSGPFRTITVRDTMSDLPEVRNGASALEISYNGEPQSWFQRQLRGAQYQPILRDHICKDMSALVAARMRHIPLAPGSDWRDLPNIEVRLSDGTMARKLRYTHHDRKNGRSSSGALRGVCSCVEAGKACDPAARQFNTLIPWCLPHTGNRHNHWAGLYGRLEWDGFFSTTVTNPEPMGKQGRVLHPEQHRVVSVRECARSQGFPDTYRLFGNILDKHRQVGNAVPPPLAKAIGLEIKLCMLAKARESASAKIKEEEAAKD

Row | SMILES | inhibition [1] [%] | inhibition at 10 µM [2] [%] | IC50 [3] [µM] | EC50 [4] [µM] | selectivity ratio [5] | IC50 [6] [µM] | EC50 [7] [µM] | EC50 [8] [µM] | IC50 [9] [µM] | IC50 [10] [µM] | IC50 [11] [µM]
1 | c1ccc(COc2ccc3c(NC4CCN(Cc5ccccc5)CC4)nc(N4CCN(c5ccccc5)CC4)nc3c2)cc1 | 43 | 100 | 0.0669 | – | – | – | – | – | – | – | –
2 | COc1ccc(CCN2CCC(Nc3nc(NCc4ccc(F)cc4)nc4cc(OC)c(OC)cc34)CC2)cc1 | – | 100 | 0.018 | > 100 | 44 | 0.8 | 5.2 | 31.8 | 0.0258 | 0.0061 | 3.21
3 | COc1cc2c(NCCNc3cccc4ccccc34)nc(N3CCN(c4ccccc4)CC3)nc2cc1OCc1ccccc1 | 15 | 99.6 | 0.0562 | – | – | – | – | – | – | – | –
4 | COc1ccc(CCN2CCC(Nc3nc(NCc4ccc(F)cc4)nc4ccccc34)CC2)cc1 | – | 100 | 0.0336 | > 100 | – | – | 4.8 | 50.9 | – | – | –
